Laboratory results taken from the supplement of paper PMC10307832.

Key:
Assay in all cases: relative viability (nuclei count vs DMSO), 5 days (fraction); higher = more cells survive
[1] = system: NCI-H1792
Procedure, shortened: (§1)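 Lung cancer cell lines, seeded in 1536-well plates, were treated the following day by pin tool with a single drug or with five library-drug doses (not always all listed) in √10 steps on top of a fixed anchor-drug dose. Cells were fixed and nuclei stained in one step after 5 days, and nuclei were counted. Relative viability is the nuclei count for treated wells divided by that for vehicle wells, reported as medians of duplicate plates.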

[2] = system: NCI-H23
Procedure, shortened: as §1

[3] = system: EKVX
Procedure, shortened: as §1

[4] = system: NCI-H838
Procedure, shortened: as §1

[5] = system: NCI-H358
Procedure, shortened: as §1

[6] = system: A-427
Procedure, shortened: as §1

[7] = system: HCC-15
Procedure, shortened: as §1

[8] = system: HCC-827
Procedure, shortened: as §1

[9] = system: COR-L 105
Procedure, shortened: as §1

[10] = system: NCI-H1437
Procedure, shortened: as §1

[11] = system: BEN
Procedure, shortened: as §1

[12] = system: 201T
Procedure, shortened: as §1

[13] = system: NCI-H1666
Procedure, shortened: as §1

[14] = system: LK-2
Procedure, shortened: as §1

[15] = system: COR-L23
Procedure, shortened: as §1

[16] = system: NCI-H650
Procedure, shortened: as §1

[17] = system: HCC-44
Procedure, shortened: as §1

[18] = system: SK-MES-1
Procedure, shortened: as §1

[19] = system: HARA
Procedure, shortened: as §1

[20] = system: NCI-H596
Procedure, shortened: as §1

[21] = system: NCI-H1975
Procedure, shortened: as §1

Q: What does the source list for `NC(=O)Nc1cc(-c2cccc(F)c2)sc1C(=O)N[C@H]1CCCNC1` [AZD7762] + CS(=O)(=O)CCNCc1ccc(-c2ccc3ncnc(Nc4ccc(OCc5cccc(F)c5)c(Cl)c4)c3c2)o1 [Lapatinib] (partner 2 µM)?
A: relative viability ([1]; first compound 0.01 µM): 0.965; relative viability ([1]; first compound 0.03162 µM): 0.911; relative viability ([1]; first compound 0.1 µM): 0.925; relative viability ([1]; first compound 0.3162 µM): 0.945; relative viability ([1]; first compound 1 µM): 1.05; relative viability ([2]; first compound 0.01 µM): 1.08; relative viability ([2]; first compound 0.03162 µM): 1.04; relative viability ([2]; first compound 0.1 µM): 1.18; relative viability ([2]; first compound 0.3162 µM): 0.508; relative viability ([2]; first compound 1 µM): 0.3; relative viability ([3]; first compound 0.01 µM): 0.204; relative viability ([3]; first compound 0.03162 µM): 0.232; relative viability ([3]; first compound 0.1 µM): 0.206; relative viability ([3]; first compound 0.3162 µM): 0.253; relative viability ([3]; first compound 1 µM): 0.166; relative viability ([4]; first compound 0.01 µM): 0.917; relative viability ([4]; first compound 0.03162 µM): 0.908; relative viability ([4]; first compound 0.1 µM): 1.07; relative viability ([4]; first compound 0.3162 µM): 0.903; relative viability ([4]; first compound 1 µM): 0.268; relative viability ([5]; first compound 0.01 µM): 0.478; relative viability ([5]; first compound 0.03162 µM): 0.537; relative viability ([5]; first compound 0.1 µM): 0.497; relative viability ([5]; first compound 0.3162 µM): 0.451; relative viability ([5]; first compound 1 µM): 0.327; relative viability ([6]; first compound 0.01 µM): 1.09; relative viability ([6]; first compound 0.03162 µM): 1.05; relative viability ([6]; first compound 0.1 µM): 1.07; relative viability ([6]; first compound 0.3162 µM): 0.938; relative viability ([6]; first compound 1 µM): 0.716; relative viability ([7]; first compound 0.01 µM): 0.842; relative viability ([7]; first compound 0.03162 µM): 0.823; relative viability ([7]; first compound 0.1 µM): 0.807; relative viability ([7]; first compound 0.3162 µM): 0.782; relative viability ([7]; first compound 1 µM): 0.907; relative viability ([8]; first compound 0.01 µM): 0.202; relative viability ([8]; first compound 0.03162 µM): 0.177; relative viability ([8]; first compound 0.1 µM): 0.189; relative viability ([8]; first compound 0.3162 µM): 0.178; relative viability ([8]; first compound 1 µM): 0.197; relative viability ([9]; first compound 0.01 µM): 0.413; relative viability ([9]; first compound 0.03162 µM): 0.353; relative viability ([9]; first compound 0.1 µM): 0.254; relative viability ([9]; first compound 0.3162 µM): 0.332; relative viability ([9]; first compound 1 µM): 0.282; relative viability ([10]; first compound 0.01 µM): 0.809; relative viability ([10]; first compound 0.03162 µM): 0.647; relative viability ([10]; first compound 0.1 µM): 0.875; relative viability ([10]; first compound 0.3162 µM): 0.841; relative viability ([10]; first compound 1 µM): 0.526; relative viability ([11]; first compound 0.01 µM): 0.788; relative viability ([11]; first compound 0.03162 µM): 0.623; relative viability ([11]; first compound 0.1 µM): 0.566; relative viability ([11]; first compound 0.3162 µM): 0.833; relative viability ([11]; first compound 1 µM): 0.488; relative viability ([12]; first compound 0.01 µM): 1.03; relative viability ([12]; first compound 0.03162 µM): 0.99; relative viability ([12]; first compound 0.1 µM): 1.03; relative viability ([12]; first compound 0.3162 µM): 1.15; relative viability ([12]; first compound 1 µM): 1.15; relative viability ([13]; first compound 0.01 µM): 0.671; relative viability ([13]; first compound 0.03162 µM): 0.821; relative viability ([13]; first compound 0.1 µM): 0.73; relative viability ([13]; first compound 0.3162 µM): 0.629; relative viability ([13]; first compound 1 µM): 0.708; relative viability ([14]; first compound 0.01 µM): 1.02; relative viability ([14]; first compound 0.03162 µM): 1.03; relative viability ([14]; first compound 0.1 µM): 0.759; relative viability ([14]; first compound 0.3162 µM): 0.828; relative viability ([14]; first compound 1 µM): 0.573; relative viability ([15]; first compound 0.01 µM): 1.16; relative viability ([15]; first compound 0.03162 µM): 1.06; relative viability ([15]; first compound 0.1 µM): 0.953; relative viability ([15]; first compound 0.3162 µM): 0.729; relative viability ([15]; first compound 1 µM): 0.131; relative viability ([16]; first compound 0.01 µM): 1.04; relative viability ([16]; first compound 0.03162 µM): 1.11; relative viability ([16]; first compound 0.1 µM): 0.813; relative viability ([16]; first compound 0.3162 µM): 0.747; relative viability ([16]; first compound 1 µM): 0.827; relative viability ([17]; first compound 0.01 µM): 1.11; relative viability ([17]; first compound 0.03162 µM): 0.952; relative viability ([17]; first compound 0.1 µM): 0.998; relative viability ([17]; first compound 0.3162 µM): 0.932; relative viability ([17]; first compound 1 µM): 0.99; relative viability ([18]; first compound 0.01 µM): 0.434; relative viability ([18]; first compound 0.03162 µM): 0.396; relative viability ([18]; first compound 0.1 µM): 0.457; relative viability ([18]; first compound 0.3162 µM): 0.468; relative viability ([18]; first compound 1 µM): 0.469; relative viability ([19]; first compound 0.01 µM): 0.851; relative viability ([19]; first compound 0.03162 µM): 0.763; relative viability ([19]; first compound 0.1 µM): 0.759; relative viability ([19]; first compound 0.3162 µM): 0.781; relative viability ([19]; first compound 1 µM): 0.256; relative viability ([20]; first compound 0.01 µM): 1.11; relative viability ([20]; first compound 0.03162 µM): 1.01; relative viability ([20]; first compound 0.1 µM): 1.13; relative viability ([20]; first compound 0.3162 µM): 1.11; relative viability ([20]; first compound 1 µM): 0.891; relative viability ([21]; first compound 0.01 µM): 0.89; relative viability ([21]; first compound 0.03162 µM): 0.831; relative viability ([21]; first compound 0.1 µM): 0.776; relative viability ([21]; first compound 0.3162 µM): 0.639; relative viability ([21]; first compound 1 µM): 0.398
